Results published in patent US20260306642A1, “STAT DEGRADERS AND USES THEREOF” (Recludix Pharma, Inc., priority 2023, published 2026).

Molecular target: pSTAT3 (Homo sapiens, UniProt P40763)
Test: MSD-pSTAT-PBMC Assay (pSTAT3, IL-6 stimulated)
Assay type: cell-based
Conditions: compound 3 hrs, then 10 ng/mL IL-6 10 min, pY705-STAT3, read-out: pSTAT3 IC50
Description: Cryopreserved Peripheral Blood Mononuclear Cells (PBMC) are from AllCells. Recombinant Human IL-4 and IL-6 are from Peprotech. Mouse monoclonal anti-STAT3 antibody, rabbit monoclonal anti-pY705-STAT3 antibody, rabbit monoclonal Anti-pY641-STAT6 antibody, and lysis buffer are from Cell Signaling Technology (CST). Mouse monoclonal anti-STAT6 antibody is from BioLegend. Assay plates, blocker, and anti-rabbit secondary antibody are from Meso Scale Discovery (MSD).
Cryopreserved PBMCs were thawed out and allowed to recover overnight in IMDM+10% heat-inactivated FBS prior to plating 50,000 (STAT3) or 25,000 (STAT6) cells per well in 96-well U-bottom tissue culture plates. Cells were treated with compound for 3 hrs, then stimulated with 10 ng/mL IL-6 (STAT3) or 1 ng/mL IL-4 (STAT6) for 10 min. Cells were then spun down and washed with ice-cold PBS prior to lysing the cell pellet with 1× lysis buffer (CST) with 1× HALT protease and phosphatase inhibitor cocktail (Thermo). Lysates were transferred to and incubated overnight at 4° C. with shaking in QuickPlex 96-well high bind assay plates (MSD) pre-coated overnight with 30 μL per well of […] mouse monoclonal anti-STAT3 antibody (STAT3) or 2 μg/mL mouse monoclonal anti-STAT6 antibody (STAT6) in 1× PBS, and pre-blocked for 1 hour with 3% Blocker-A (MSD). Captured protein in the assay plates were then washed and probed with 25 μL per well of […] rabbit monoclonal anti-pY705-STAT3 antibody (STAT3) or […] rabbit monoclonal Anti-pY641-STAT6 antibody (STAT6) in 1% Blocker-A for 1 hour at room temperature with shaking, then washed and probed with 25 ul per well of 1 ug/ml Sulfo-TAG Labeled Goat Anti-Rabbit Antibody (MSD) in 1% Blocker-A for 1 hour at room temperature with shaking. Assay plates were then washed and 150 μL of 1× Read Buffer-T (MSD) was added to each well prior to reading on an SQ120 MSD Plate Reader. Assay signal from each sample was subtracted by the signal from unstimulated control wells and normalized to DMSO control wells. IC50 values were calculated using Graph Pad Prism Dose-Response Nonlinear Regression with variable slope. For both pSTAT3 and pSTAT6 A=≤100 nM; B=>100-1000 nM; C=>1000-3000 nM; and D=>3 μM.

Chain of pSTAT3 (P40763 whole entry): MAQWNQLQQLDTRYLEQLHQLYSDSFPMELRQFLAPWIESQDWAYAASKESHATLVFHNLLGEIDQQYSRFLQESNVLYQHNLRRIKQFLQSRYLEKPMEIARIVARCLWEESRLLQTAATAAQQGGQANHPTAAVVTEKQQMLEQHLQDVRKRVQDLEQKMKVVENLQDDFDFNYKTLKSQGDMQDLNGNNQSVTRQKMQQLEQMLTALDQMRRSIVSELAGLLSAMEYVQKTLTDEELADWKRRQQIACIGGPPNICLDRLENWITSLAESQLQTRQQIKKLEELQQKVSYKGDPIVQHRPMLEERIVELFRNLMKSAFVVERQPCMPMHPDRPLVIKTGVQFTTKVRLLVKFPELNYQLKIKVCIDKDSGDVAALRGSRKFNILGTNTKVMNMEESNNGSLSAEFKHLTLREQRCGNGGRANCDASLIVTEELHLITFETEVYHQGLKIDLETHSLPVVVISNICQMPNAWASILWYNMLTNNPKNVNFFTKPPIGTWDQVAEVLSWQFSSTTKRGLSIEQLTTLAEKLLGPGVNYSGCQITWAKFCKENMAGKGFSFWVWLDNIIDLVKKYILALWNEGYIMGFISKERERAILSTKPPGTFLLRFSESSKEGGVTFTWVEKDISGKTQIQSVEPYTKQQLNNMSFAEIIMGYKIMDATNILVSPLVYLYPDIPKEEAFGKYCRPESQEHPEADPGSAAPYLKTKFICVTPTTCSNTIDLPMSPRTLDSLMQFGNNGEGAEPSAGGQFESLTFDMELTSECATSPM

Row | IC50 [nM] | Structure (SMILES)
1 | < 100 | CCCC(=O)SCCOP(=O)(OCCSC(=O)CCC)C(F)(F)c1ccc2sc(C(=O)N[C@H]3CCC[C@H]4CC[C@@H](C(=O)N5CC(c6cnccc6OCCOc6ccc(C7CCC(=O)NC7=O)cc6)C5)N4C3=O)cc2c1 (stereo partly drawn) [Compound 10, S,S(((((2-(((3S,6S,9aS)-3-(3-(4-(2-(4-(2,6-dioxopiperidin-3-yl)phenoxy)ethoxy)pyridin-3-yl)azetidine-1-carbonyl)-5-oxooctahydro-1H-pyrrolo[1,2-a]azepin-6-yl)carbamoyl)benzo[b]thiophen-5-yl)difluoromethyl)phosphoryl)bis(oxy))bis(ethane-2,1-diyl)) dibutanethioate]
2 | < 100 | CCCC(=O)SCCOP(=O)(OCCSC(=O)CCC)C(F)(F)c1ccc2sc(C(=O)N[C@H]3CCC[C@H]4CC[C@@H](C(=O)N5CC(c6cnccc6OCCOCCOc6ccc(C7CCC(=O)NC7=O)cc6)C5)N4C3=O)cc2c1 (stereo partly drawn) [Compound 12, S,S((((2-(((3S,6S,9aS)-3-(3-(4-(2-(2-(4-(2,6-dioxopiperidin-3-yl)phenoxy)ethoxy)ethoxy)pyridin-3-yl)azetidine-1-carbonyl)-5-oxooctahydro-1H-pyrrolo[1,2-a]azepin-6-yl)carbamoyl)benzo[b]thiophen-5-yl)difluoromethyl)phosphoryl)bis(oxy))bis(ethane-2,1-diyl)) dibutanethioate]
3 | < 100 | CCCC(=O)SCCOP(=O)(OCCSC(=O)CCC)C(F)(F)c1ccc2sc(C(=O)N[C@H]3CCC[C@H]4CC[C@@H](C(=O)N5CC(c6cnccc6N(C)CCOc6ccc(C7CCC(=O)NC7=O)cc6)C5)N4C3=O)cc2c1 (stereo partly drawn) [Compound 20, S,S(((((2-(((3S,6S,9aS)-3-(3-(4-((2-(4-(2,6-dioxopiperidin-3-yl)phenoxy)ethyl)(methyl)amino)pyridin-3-yl)azetidine-1-carbonyl)-5-oxooctahydro-1H-pyrrolo[1,2-a]azepin-6-yl)carbamoyl)benzo[b]thiophen-5-yl)difluoromethyl)phosphoryl)bis(oxy))bis(ethane-2,1-diyl)) dibutanethioate]
4 | < 100 | Cn1c(=O)n(C2CCC(=O)NC2=O)c2ccc(C#CCCC3CCN(c4ccncc4C4CN(C(=O)[C@@H]5CC[C@@H]6CCC[C@H](NC(=O)c7cc8cc(C(F)(F)P(=O)(OCCSC(=O)C(C)(C)C)OCCSC(=O)C(C)(C)C)ccc8s7)C(=O)N65)C4)CC3)cc21 (stereo partly drawn) [Compound 35, S,S(((((2-(((3S,6S,9aS)-3-(3-(4-(4-(4-(1-(2,6-dioxopiperidin-3-yl)-3-methyl-2-oxo-2,3-dihydro-1H-benzo[d]imidazol-5-yl)but-3-yn-1-yl)piperidin-1-yl)pyridin-3-yl)azetidine-1-carbonyl)-5-oxooctahydro-1H-pyrrolo[1,2-a]azepin-6-yl)carbamoyl)benzo[b]thiophen-5-yl)difluoromethyl)phosphoryl)bis(oxy))bis(ethane-2,1-diyl)) bis(2,2-dimethylpropanethioate)]

Row | Structure (SMILES) | IC50 [nM]
5 | CCCC(=O)SCCOP(=O)(OCCSC(=O)CCC)C(F)(F)c1ccc2sc(C(=O)N[C@H]3CCC[C@H]4CC[C@@H](C(=O)N5CC(c6cnccc6OCCCCN[C@H](C(=O)N6C[C@H](O)C[C@H]6C(=O)NCc6ccc(-c7scnc7C)cc6)C(C)(C)C)C5)N4C3=O)cc2c1 [Compound 1, S,S((((difluoro(2-(((3S,6S,9aS)-3-(3-(4-(4-(((S)-1-((2S,4R)-4-hydroxy-2-((4-(4-methylthiazol-5-yl)benzyl)carbamoyl)pyrrolidin-1-yl)-3,3-dimethyl-1-oxobutan-2-yl)amino)butoxy)pyridin-3-yl)azetidine-1-carbonyl)-5-oxooctahydro-1H-pyrrolo[1,2-a]azepin-6-yl)carbamoyl)benzo[b]thiophen-5-yl)methyl)phosphoryl)bis(oxy))bis(ethane-2,1-diyl)) dibutanethioate] | 100 to 1000

Same assay, conditions: read-out: pSTAT3 IC50, compound 3 hrs, then 10 ng/mL IL-6 10 min, pY705-STAT3

Row | Structure (SMILES) | IC50 [nM]
6 | CCCC(=O)SCCOP(=O)(OCCSC(=O)CCC)C(F)(F)c1ccc2sc(C(=O)N[C@H]3CCC[C@H]4CC[C@@H](C(=O)N5CC(c6cnccc6N6CCC(C(=O)N[C@H](C(=O)N7C[C@H](O)C[C@H]7C(=O)NCc7ccc(-c8scnc8C)cc7)C(C)(C)C)CC6)C5)N4C3=O)cc2c1 [Compound 7, S,S((((difluoro(2-(((3S,6S,9aS)-3-(3-(4-(4-(((S)-1-((2S,4R)-4-hydroxy-2-((4-(4-methylthiazol-5-yl)benzyl)carbamoyl)pyrrolidin-1-yl)-3,3-dimethyl-1-oxobutan-2-yl)carbamoyl)piperidin-1-yl)pyridin-3-yl)azetidine-1-carbonyl)-5-oxooctahydro-1H-pyrrolo[1,2-a]azepin-6-yl)carbamoyl)benzo[b]thiophen-5-yl)methyl)phosphoryl)bis(oxy))bis(ethane-2,1-diyl)) dibutanethioate] | 100 to 1000
7 | CCCC(=O)SCCOP(=O)(OCCSC(=O)CCC)C(F)(F)c1ccc2sc(C(=O)N[C@H]3CCC[C@H]4CC[C@@H](C(=O)N5CC(c6cnccc6N6CCN(C(=O)COc7ccc(C8CCC(=O)NC8=O)cc7)CC6)C5)N4C3=O)cc2c1 (stereo partly drawn) [Compound 29, S,S(((((2-(((3S,6S,9aS)-3-(3-(4-(4-(2-(4-(2,6-dioxopiperidin-3-yl)phenoxy)acetyl)piperazin-1-yl)pyridin-3-yl)azetidine-1-carbonyl)-5-oxooctahydro-1H-pyrrolo[1,2-a]azepin-6-yl)carbamoyl)benzo[b]thiophen-5-yl)difluoromethyl)phosphoryl)bis(oxy))bis(ethane-2,1-diyl)) dibutanethioate] | < 100
8 | CCCOC(=O)[C@H](C)NP(=O)(Oc1ccccc1)[C@@H](F)c1ccc2sc(C(=O)N[C@H]3CCC[C@H]4CC[C@@H](C(=O)N5CC(c6cnccc6N6CCC(CCC#Cc7ccc8c(c7)n(C)c(=O)n8C7CCC(=O)NC7=O)CC6)C5)N4C3=O)cc2c1 (stereo partly drawn) [Compound 38, propyl (((1R)-(2-(((3S,6S,9aS)-3-(3-(4-(4-(4-(1-(2,6-dioxopiperidin-3-yl)-3-methyl-2-oxo-2,3-dihydro-1H-benzo[d]imidazol-5-yl)but-3-yn-1-yl)piperidin-1-yl)pyridin-3-yl)azetidine-1-carbonyl)-5-oxooctahydro-1H-pyrrolo[1,2-a]azepin-6-yl)carbamoyl)benzo[b]thiophen-5-yl)fluoromethyl)(phenoxy)phosphoryl)-L-alaninate] | < 100
9 | CCCOC(=O)[C@H](C)NP(=O)(Oc1ccccc1)[C@H](F)c1ccc2sc(C(=O)N[C@H]3CCC[C@H]4CC[C@@H](C(=O)N5CC(c6cnccc6N6CCC(CCC#Cc7ccc8c(c7)n(C)c(=O)n8C7CCC(=O)NC7=O)CC6)C5)N4C3=O)cc2c1 (stereo partly drawn) [Compound 39, propyl (((1S)-(2-(((3S,6S,9aS)-3-(3-(4-(4-(4-(1-(2,6-dioxopiperidin-3-yl)-3-methyl-2-oxo-2,3-dihydro-1H-benzo[d]imidazol-5-yl)but-3-yn-1-yl)piperidin-1-yl)pyridin-3-yl)azetidine-1-carbonyl)-5-oxooctahydro-1H-pyrrolo[1,2-a]azepin-6-yl)carbamoyl)benzo[b]thiophen-5-yl)fluoromethyl)(phenoxy)phosphoryl)-L-alaninate] | < 100
